How the values were obtained:
Assay type in all cases: cell-based, mouse
RAW 264.7 cells [1] = experiment: Gene expression analysis (qPCR) of M1 cytokines and Inos; conditions: for effect on nab-paclitaxel-dependent M1 cytokine expression: co-treatment with nab-paclitaxel
Method: Cell lines and cell culture treatments. All cells were maintained under 5% CO2 at 37° C. and cultured in DMEM (Gibco) supplemented with 10% FBS (Gibco), penicillin and streptomycin (Gibco), and 25 mmol/L HEPES (Gibco). Mouse RAW 264.7 cells were obtained from the American Type Culture Collection (2014, ATCC TIB-71). Mouse KPC cells were a kind gift from Dr. R. H. Vonderheide (2013) and generated as previously described (Lo et al., “Tumor-Promoting Desmoplasia Is Disrupted by Depleting FAP-Expressing Stromal Cells,” Cancer Res. 75:2800-10 (2015), which is hereby incorporated by reference in its entirety). Cell lines were not authenticated and were tested for mycoplasma contamination every 3 months by DAPI stain of cells grown for 1 week in the absence of antibiotics. KPC and RAW 264.7 were propagated for 2 to 3 passages (approximately 1 week) prior to use in all experiments and were kept in culture for no longer than 1 month. Recombinant mouse interferon gamma IFNγ was purchased from R&D Systems (CN 485 MI/CF), LPS (L2630), and paclitaxel (T7402) were purchased from Sigma-Aldrich, CLI-095 was purchased from Invivogen (TLRL-CLI95), BAPTA-AM was purchased from Life Technologies (B6769), and 5-(N-ethyl-N-isopropyl) amiloride (EIPA) was purchased from Invitrogen Molecular Probes (e-3111). Reagents were used at concentrations of 5 ng/mL (IFNγ), 20 ng/mL (LPS), […] (paclitaxel), 500 nmol/L (CLI-095), […] (BAPTA-AM), and […] (EIPA) unless indicated otherwise. Tetramethylrhodamine (TMR)-labeled dextran was purchased from Invitrogen (D1822). Nab-paclitaxel (Abraxane; Abraxis BioScience) pharmaceutical grade powder was purchased through the NYU Langone Medical Center pharmacy and used at a concentration of […] for in vitro experiments.
Gene expression analysis. For in vitro qPCR analysis, total RNAwas harvested 2 hours (IL1α, IL1β, IL6, TNFα, and iNOS) or 8 hours (IL12β) after cell culture treatments, using the QIAGEN RNA extraction Kit (QIAGEN). For in vivo gene expression analysis, the CD45 F4/80 double-positive population was sorted directly into TRIzol LS Reagent (Thermo-FisherScientific; CN 10296) from dissociated orthotopic tumors 48 hours after treatment, and total RNA was purified according to the manufacturer's protocol. Purified RNA ([…]) was reverse-transcribed using the QuantiTect Reverse Transcription Kit (QIAGEN), and 1 of 10 of cDNA mixture (in vitro experiments) or 1 of 3 of cDNA mixture (in vivo experiments) was used for qPCR reaction. Primers were obtained from Integrated DNA Technologies (IDT) with the following sequences (5′-3′): Il1α (Forward) […] (SEQ ID NO: 2), (Reverse) […] (SEQ ID NO: 3); Il1β (Forward) […] (SEQ ID NO: 4), (Reverse) […] (SEQ ID NO: 5); Il6 (Forward) […]-[…] (SEQ ID NO: 6), (Reverse) […] (SEQ ID NO: 7); Inos (Forward) […] (SEQ ID NO: 8), (Reverse) […] (SEQ ID NO: 9); Tnfα (Forward) […] (SEQ ID NO: 10), (Reverse) […] (SEQ ID NO: 11); Il12b (IIl12 p40) (Forward) […] (SEQ ID NO: 12), (Reverse) […]-[…] (SEQ ID NO: 13); Gapdh (Forward) […] (SEQ ID NO: 14), (Reverse) […] (SEQ ID NO: 15); Rps29 […] (SEQ ID NO: 16) (Forward), […]-GCGTACT (SEQ ID NO: 17) (Reverse).

RAW 264.7 cells [2] = experiment: Western blot analysis of M1 cytokine and iNOS protein expression
Method: (§1) Cell lines and cell culture treatments. All cells were maintained under 5% CO2 at 37° C. and cultured in DMEM (Gibco) supplemented with 10% FBS (Gibco), penicillin and streptomycin (Gibco), and 25 mmol/L HEPES (Gibco). Mouse RAW 264.7 cells were obtained from the American Type Culture Collection (2014, ATCC TIB-71). Mouse KPC cells were a kind gift from Dr. R. H. Vonderheide (2013) and generated as previously described (Lo et al., “Tumor-Promoting Desmoplasia Is Disrupted by Depleting FAP-Expressing Stromal Cells,” Cancer Res. 75:2800-10 (2015), which is hereby incorporated by reference in its entirety). Cell lines were not authenticated and were tested for mycoplasma contamination every 3 months by DAPI stain of cells grown for 1 week in the absence of antibiotics. KPC and RAW 264.7 were propagated for 2 to 3 passages (approximately 1 week) prior to use in all experiments and were kept in culture for no longer than 1 month. Recombinant mouse interferon gamma IFNγ was purchased from R&D Systems (CN 485 MI/CF), LPS (L2630), and paclitaxel (T7402) were purchased from Sigma-Aldrich, CLI-095 was purchased from Invivogen (TLRL-CLI95), BAPTA-AM was purchased from Life Technologies (B6769), and 5-(N-ethyl-N-isopropyl) amiloride (EIPA) was purchased from Invitrogen Molecular Probes (e-3111). […]

RAW 264.7 cells [3] = experiment: Macropinocytosis assay: OG-nab-paclitaxel internalization by macrophages; conditions: 30 minute pretreatment with inhibitor or blocking antibody
Method: as §1

[4] = nab-ptx in combination with IFNγ

Structure (SMILES)	effect on nab-paclitaxel-dependent M1 cytokine expression (RAW 264.7 cells [1])	effect on nab-paclitaxel and LPS-dependent iNOS protein expression (RAW 264.7 cells [2]; with IFNγ)	effect on LPS-dependent Il1α, Il1β, Il6, Il12b, and Tnfα gene expression (RAW 264.7 cells [1]; TLR4 inhibitor with LPS)	effect on nab-paclitaxel-dependent Il1α, Il1β, Il6, Il12b, and Tnfα gene expression (RAW 264.7 cells [1]; TLR4 inhibitor with nab-ptx)	effect on nab-paclitaxel-driven iNOS protein expression (RAW 264.7 cells [2]; [4])	effect on OG-nab-paclitaxel internalization (RAW 264.7 cells [3])	effect on nab-paclitaxel-driven iNOS gene expression (RAW 264.7 cells [1]; [4])
CC(=O)OCOC(=O)CN(CC(=O)OCOC(C)=O)c1ccccc1OCCOc1ccccc1N(CC(=O)OCOC(C)=O)CC(=O)OCOC(C)=O [BAPTA-AM]	inhibited						
CCOC(=O)C1=CCCC[C@H]1S(=O)(=O)Nc1ccc(F)cc1Cl [CLI-095]		abrogated	abrogated	abrogated			
CCN(c1nc(N)c(C(=O)N=C(N)N)nc1Cl)C(C)C [EIPA, 5-(N-ethyl-N-isopropyl) amiloride]	inhibited				partially inhibited	reduced	partially inhibited
